Reference: patent US20050032873A1, “3-Amino chroman and 2-amino tetralin derivatives” (Wyeth, priority 2003, published 2005)
Counter-ions that a name gives are not always drawn.

Row | Compound | melting point
1 | CCN(CCCc1c[nH]c2c(OC)cccc12)C1COc2c(F)ccc(C(N)=O)c2C1 (stereo not shown) (as salt: hydrochloride) [Compound 101, 3-{ethyl[3-(7-methoxy-1H-indol-3-yl)propyl]amino}-8-fluorochromane-5-carboxamide] | 148 to 153 °C (dec.)
2 | COc1cccc2c(CCCN(C3CCC3)C3COc4c(F)ccc(C(N)=O)c4C3)c[nH]c12 (stereo not shown) (as salt: hydrochloride) [Compound 102, 3-{cyclobutyl[3-(7-methoxy-1H-indol-3-yl)propyl]amino}-8-fluorochromane-5-carboxamide] | 156 to 162 °C (dec.)
3 | COc1cccc2c(CCCN(CC3CC3)C3COc4c(F)ccc(C(N)=O)c4C3)c[nH]c12 (stereo not shown) (as salt: hydrochloride) [Compound 103, 3-{(cyclopropylmethyl)[3-(7-methoxy-1H-indol-3-yl)propyl]amino}-8-fluorochromane-5-carboxamide] | 152 to 158 °C (dec.)
4 | COc1ccc2[nH]cc(CCCNC3COc4c(F)ccc(C(N)=O)c4C3)c2c1 (stereo not shown) (as salt: hydrochloride) [Compound 104, 8-fluoro-3-{[3-(5-methoxy-1H-indol-3-yl)propyl]amino}chromane-5-carboxamide] | 171 to 176 °C (dec.)
5 | CCN(CCCc1c[nH]c2ccc(OC)cc12)C1COc2c(F)ccc(C(N)=O)c2C1 (stereo not shown) (as salt: hydrochloride) [Compound 105, 3-{ethyl[3-(5-methoxy-1H-indol-3-yl)propyl]amino}-8-fluorochromane-5-carboxamide] | 154 to 162 °C (dec.)
6 | CCCN(CCCc1c[nH]c2ccc(OC)cc12)C1COc2c(F)ccc(C(N)=O)c2C1 (stereo not shown) (as salt: hydrochloride) [Compound 106, 8-fluoro-3-[[3-(5-methoxy-1H-indol-3-yl)propyl](propyl)amino]chromane-5-carboxamide] | 145 to 152 °C (dec.)
7 | COc1ccc2[nH]cc(CCCN(C3CCC3)C3COc4c(F)ccc(C(N)=O)c4C3)c2c1 (stereo not shown) (as salt: hydrochloride) [Compound 107, 3-{cyclobutyl[3-(5-methoxy-1H-indol-3-yl)propyl]amino}-8-fluorochromane-5-carboxamide] | 151 to 158 °C (dec.)
8 | COc1ccc2[nH]cc(CCCN(CC3CC3)C3COc4c(F)ccc(C(N)=O)c4C3)c2c1 (stereo not shown) (as salt: hydrochloride) [Compound 108, 3-{(cyclopropylmethyl)[3-(5-methoxy-1H-indol-3-yl)propyl]amino}-8-fluorochromane-5-carboxamide] | 148 to 154 °C (dec.)
9 | NC(=O)c1ccc(F)c2c1CC(NCCCc1c[nH]c3c(Cl)cccc13)CO2 (stereo not shown) (as salt: hydrochloride) [Compound 109, 3-{[3-(7-chloro-1H-indol-3-yl)propyl]amino}-8-fluorochromane-5-carboxamide] | 222 to 224 °C
10 | CCN(CCCc1c[nH]c2c(Cl)cccc12)C1COc2c(F)ccc(C(N)=O)c2C1 (stereo not shown) (as salt: hydrochloride) [Compound 110, 3-[[3-(7-chloro-1H-indol-3-yl)propyl](ethyl)amino]-8-fluorochromane-5-carboxamide] | 146 to 152 °C (dec.)
11 | NC(=O)c1ccc(F)c2c1CC(N(CCCc1c[nH]c3c(Cl)cccc13)C1CCC1)CO2 (stereo not shown) (as salt: hydrochloride) [Compound 111, 3-[[3-(7-chloro-1H-indol-3-yl)propyl](cyclobutyl)amino]-8-fluorochromane-5-carboxamide] | 154 to 163 °C (dec.)
12 | NC(=O)c1ccc(F)c2c1CC(N(CCCc1c[nH]c3c(Cl)cccc13)CC1CC1)CO2 (stereo not shown) (as salt: hydrochloride) [Compound 112, 3-[[3-(7-chloro-1H-indol-3-yl)propyl](cyclopropylmethyl)amino]-8-fluorochromane-5-carboxamide] | 147 to 155 °C (dec.)
13 | CCCN(CCCc1c[nH]c2c(Cl)cccc12)C1COc2c(F)ccc(C(N)=O)c2C1 (stereo not shown) (as salt: hydrochloride) [Compound 113, 3-[[3-(7-chloro-1H-indol-3-yl)propyl](propyl)amino]-8-fluorochromane-5-carboxamide] | 145 to 154 °C (dec.)
